In assay [1] the target is T1, HDAC3 (in complex with the deacetylase activation domain of the human NCOR2 (amino acids 395-498)) (Homo sapiens, UniProt O15379).
T1 construct: purchased BPS Bioscience 50003
Briefly: In vitro HDAC activity assay (HDAC-Glo I/II), HDAC3. The class given is biochemical. To be noted: HDAC-Glo I/II; average of three independent assays ± standard deviation. As for the experimental part: (§1) Purified HDAC1, HDAC2, and HDAC3 (in complex with the deacetylase activation domain of the human NCOR2 (amino acids 395-498)) were obtained from Enzo Life Sciences (HDAC1, catalog # BML-SE456-0050) and BPS Bioscience (HDAC2, catalog #50002 and HDAC3, catalog #50003), respectively. The enzyme activities were tested using the HDAC-Glo I/II reagents (Promega) according to a protocol provided by the manufacturer.

Another assay deals with HDAC2 (Homo sapiens, UniProt Q92769). Nature of the assay: In vitro HDAC activity assay (HDAC-Glo I/II), HDAC2. Format: biochemical. Also noted: purchased BPS Bioscience 50002. To be noted: average of three independent assays ± standard deviation. How it is done:
as §1

The target in the next assay is HDAC1 (Homo sapiens, UniProt Q13547). Nature of the assay: In vitro HDAC activity assay (HDAC-Glo I/II), HDAC1. Also on record: purchased Enzo Life Sciences BML-SE456-0050. To be noted: average of three independent assays ± standard deviation. Format: biochemical. As for the experimental part:
as §1

Another assay concerns the target HDAC3 (Homo sapiens, UniProt O15379). Nature of the assay: HDAC3 degradation in breast cancer cell lines, Western blot. Also on record: endogenous in cells; host or cells: MDA-MB-468, T47D, MCF7. Format: cell-based. To be noted: for DC50: T47D cells, read-out: DC50, HDAC3 degradation potency. The source says:
Data are presented as representative figures of two independent experiments.
Cells were lysed for WB with antibodies against the indicated proteins. Antibodies against acetylated histones at specific sites (H3K27 and H4K5) and acetyl-lysine were used to assess levels of histone acetylation.
Cells were lysed for WB. […] The indicated BC cell lines were exposed to DMSO, XZ9002, or XZ9002-NC at the indicated concentrations. Colonies were fixed and stained.
Cell lines were obtained from ATCC and subsequently authenticated. Cells were cultured with DMEM supplemented with 10% bovine calf serum, penicillin to 10 units/mL, and streptomycin to 10 μg/mL. For viability assays, 5,000 cells/well were seeded in 96-well plates. […] For colony formation assay, cells (˜1,000 cells/well) were seeded in a 24-well plate in quadruplicates. […] Medium was replaced with freshly prepared medium containing DMSO, XZ9002 or XZ9002-NC every five days until visible colonies appeared, typically in 15 to 20 days after initial cell seeding. Cells were fixed with 4% paraformaldehyde for 15 min and stained with 2% methylene blue in 20% ethanol for 30 min to 1 h. The cells were washed twice with distilled water and dried in air. For western blotting, cell cultures were exposed to compounds as indicated in relevant figures. Medium was removed from culture plate, and 1 x passive lysis buffer was then added, the plates were frozen at −80° C. overnight and thawed at room temperature. The total cell lysates were mixed with a one fifth volume of 6x SDS sample buffer, heated at 95° C. for 5 min and cooled on ice. The lysates were cleared by centrifugation and then subjected to SDS-PAGE and western blotting essentially as described.

Structures are written as SMILES. Bounds are passed on as bounds.

HDAC1, sequence (Q13547 whole entry): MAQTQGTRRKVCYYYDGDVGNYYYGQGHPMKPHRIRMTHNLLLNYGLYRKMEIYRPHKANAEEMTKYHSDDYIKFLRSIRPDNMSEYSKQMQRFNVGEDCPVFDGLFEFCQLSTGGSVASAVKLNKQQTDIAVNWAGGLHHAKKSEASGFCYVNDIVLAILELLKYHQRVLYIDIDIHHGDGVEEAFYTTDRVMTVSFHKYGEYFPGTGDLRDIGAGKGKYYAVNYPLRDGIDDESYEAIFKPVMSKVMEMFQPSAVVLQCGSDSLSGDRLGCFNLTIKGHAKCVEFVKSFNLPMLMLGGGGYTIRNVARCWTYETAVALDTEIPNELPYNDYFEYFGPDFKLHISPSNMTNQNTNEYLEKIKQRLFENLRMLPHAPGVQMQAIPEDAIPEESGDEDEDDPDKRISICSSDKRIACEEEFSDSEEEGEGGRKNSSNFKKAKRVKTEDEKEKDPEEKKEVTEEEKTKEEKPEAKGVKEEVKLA
T1 sequence (O15379 whole entry, the tested form may be a part): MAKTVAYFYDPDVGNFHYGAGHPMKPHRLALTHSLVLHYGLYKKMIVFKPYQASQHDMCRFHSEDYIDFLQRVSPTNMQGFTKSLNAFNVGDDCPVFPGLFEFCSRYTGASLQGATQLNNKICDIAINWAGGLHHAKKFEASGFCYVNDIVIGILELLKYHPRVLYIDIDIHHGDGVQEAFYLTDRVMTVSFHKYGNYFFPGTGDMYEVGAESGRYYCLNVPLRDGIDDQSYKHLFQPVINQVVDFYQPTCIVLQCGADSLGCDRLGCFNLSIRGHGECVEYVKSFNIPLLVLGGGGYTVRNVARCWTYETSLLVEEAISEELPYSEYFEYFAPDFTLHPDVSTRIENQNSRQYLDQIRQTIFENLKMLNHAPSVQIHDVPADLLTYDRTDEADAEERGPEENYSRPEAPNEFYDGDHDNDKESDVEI
T1 sequence (Q9Y618 395-498 partner limits assumed): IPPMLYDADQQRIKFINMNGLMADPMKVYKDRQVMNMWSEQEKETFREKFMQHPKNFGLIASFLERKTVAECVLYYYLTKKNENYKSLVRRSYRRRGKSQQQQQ
HDAC3, sequence (O15379 whole entry): as the sequence (O15379 whole entry, the tested form may be a part) above
HDAC3, sequence (Q9Y618 395-498 partner limits assumed): as the sequence (Q9Y618 395-498 partner limits assumed) above
HDAC2, sequence (Q92769 whole entry): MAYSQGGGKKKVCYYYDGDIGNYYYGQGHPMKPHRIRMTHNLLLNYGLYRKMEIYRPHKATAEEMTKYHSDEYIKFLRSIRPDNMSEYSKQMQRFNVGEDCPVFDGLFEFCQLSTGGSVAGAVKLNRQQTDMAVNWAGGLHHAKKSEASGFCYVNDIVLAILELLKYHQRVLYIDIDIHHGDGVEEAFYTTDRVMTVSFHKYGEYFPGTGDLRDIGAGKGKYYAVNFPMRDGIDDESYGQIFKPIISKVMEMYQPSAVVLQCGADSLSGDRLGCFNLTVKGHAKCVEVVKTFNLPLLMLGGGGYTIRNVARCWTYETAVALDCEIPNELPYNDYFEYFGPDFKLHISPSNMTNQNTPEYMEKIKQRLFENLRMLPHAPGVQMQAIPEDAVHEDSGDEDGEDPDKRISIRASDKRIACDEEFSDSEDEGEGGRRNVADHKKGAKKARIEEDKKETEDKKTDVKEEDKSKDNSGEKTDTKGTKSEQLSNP

For the compound `CCCNNC(=O)c1ccc(-c2ccc(NC(=O)COCCOCCNc3cccc4c3C(=O)N(C3CCC(=O)NC3=O)C4=O)cc2)cc1` (stereo not drawn) [Compound 7a], the IC50 stood at 0.043 ± 0.018 µM in assay [1], 0.41 ± 0.014 µM against HDAC2 and 0.082 ± 0.025 µM against HDAC1.
Regarding `CCCNNC(=O)c1ccc(-c2ccc(NC(=O)COCCOCCOCCNc3cccc4c3C(=O)N(C3CCC(=O)NC3=O)C4=O)cc2)cc1` (stereo not drawn) [Compound 7b, 2-(2-(2-(2-((2-(2,6-dioxopiperidin-3-yl)-1,3-dioxoisoindolin-4-yl)amino)ethoxy)ethoxy)ethoxy)-N-(4′-(20propylhydrazine-1-carbonyl)[1,1′-biphenyl]-4-yl)acetamide], the values for the IC50 (in assay [1]; against HDAC2; against HDAC1) were 0.038 ± 0.023 µM, 0.4 ± 0.03 µM and 0.09 ± 0.014 µM, respectively.
Consider `CCCNNC(=O)c1ccc(-c2ccc(NC(=O)COCCOCCOCCOCCNc3cccc4c3C(=O)N(C3CCC(=O)NC3=O)C4=O)cc2)cc1` (stereo not drawn) [Compound 7c, 14-((2-(2,6-dioxopiperidin-3-yl)-1,3-dioxoisoindolin-4-yl)amino)-N-(4′-(2-propylhydrazine-1-carbonyl)-[1,1′-biphenyl]-4-yl)-3,6,9,12-tetraoxatetradecanamide], for which the IC50 in assay [1] came to 0.072 ± 0.015 µM; on HDAC2 it was 0.45 ± 0.07 µM; on HDAC1, 0.125 ± 0.035 µM. In addition, on HDAC3 (PROTACs derived from CRBN, breast cancer cell lines), the “concentration at which HDAC3 is degraded” value was 1.0 µM.
As for `CCCNNC(=O)c1ccc(-c2ccc(NC(=O)CCC(=O)N[C@H](C(=O)N3C[C@H](O)C[C@H]3C(=O)N[C@@H](C)c3ccc(-c4scnc4C)cc3)C(C)(C)C)cc2)cc1` [Compound 8a, N^1—((S)-1-((2S,4R)-4-hydroxy-2-(((S)-1-(4-(4-methylthiazol-5-yl)phenyl)ethyl)carbamoyl)pyrrolidine-1-yl)-3,3-dimethyl-1-oxobutan-2-yl)-N^4-(4′-(2-propylhydrazine-1-carbonyl)-[1,1′-biphenyl]-4-yl)succinimide], the values for the IC50 (in assay [1]; on HDAC2; on HDAC1) were 0.14 ± 0.04 µM, 1.4 ± 0.14 µM and 0.3 ± 0.07 µM, respectively.
The matching figures for `CCCNNC(=O)c1ccc(-c2ccc(NC(=O)CCCCCCCCC(=O)N[C@H](C(=O)N3C[C@H](O)C[C@H]3C(=O)N[C@@H](C)c3ccc(-c4scnc4C)cc3)C(C)(C)C)cc2)cc1` [Compound 8d, N^1—((S)-1-((2S,4R)-4-Hydroxy-2-(((S)-1-(4-(4-methylthiazol-5-yl)phenyl)ethyl)carbamoyl)pyrrolidin-1-yl)-3,3-dimethyl-1-oxobutan-2-yl)-N^10-(4′-(2-propylhydrazine-1-carbonyl)-[1,1′-biphenyl]-4-yl)decanediamide]: 0.55 ± 0.07 µM, 1.42 ± 0.25 µM and 1.5 ± 0.14 µM.
Regarding `CCCNNC(=O)c1ccc(N2CCN(C(=O)CCCCC(=O)N[C@H](C(=O)N3C[C@H](O)C[C@H]3C(=O)N[C@@H](C)c3ccc(-c4scnc4C)cc3)C(C)(C)C)CC2)cc1` [Compound 27a, (2S,4R)-1-((S)-3,3-dimethyl-2-(6-oxo-6-(4-(4-(2-propylhydrazine-1-carbonyl)phenyl)piperazin-1-yl)hexanamido)butanoyl)-4-hydroxy-N—((S)-1-(4-(4-methylthiazol-5-yl)phenyl)ethyl)pyrrolidine-2-carboxamide], on HDAC3, the DC50 was less than 1 µM.
For `CCCNNC(=O)c1ccc(N2CCN(C(=O)CCCCCCC(=O)N[C@H](C(=O)N3C[C@H](O)C[C@H]3C(=O)N[C@@H](C)c3ccc(-c4scnc4C)cc3)C(C)(C)C)CC2)cc1` [Compound 27b, (2S,4R)-1-((S)-3,3-dimethyl-2-(8-oxo-8-(4-(4-(2-propylhydrazine-1-carbonyl)phenyl)piperazin-1-yl)octanamido)butanoyl)-4-hydroxy-N—((S)-1-(4-(4-methylthiazol-5-yl)phenyl)ethyl)pyrrolidine-2-carboxamide], the DC50 at HDAC3 was less than 0.1 µM.
On the same count and under the same terms, with `CCCNNC(=O)c1ccc(N2CCN(C(=O)CCCCCCCCC(=O)N[C@H](C(=O)N3C[C@H](O)C[C@H]3C(=O)N[C@@H](C)c3ccc(-c4scnc4C)cc3)C(C)(C)C)CC2)cc1` [Compound 27c, (2S,4R)-1-((S)-3,3-dimethyl-2-(10-oxo-10-(4-(4-(2-propylhydrazine-1-carbonyl)phenyl)piperazin-1-yl)decanamido)butanoyl)-4-hydroxy-N—((S)-1-(4-(4-methylthiazol-5-yl)phenyl)ethyl)pyrrolidine-2-carboxamide] the figure was less than 0.1 µM; with `CCCNNC(=O)c1ccc(N2CCN(CCCCCC(=O)N[C@H](C(=O)N3C[C@H](O)C[C@H]3C(=O)N[C@@H](C)c3ccc(-c4scnc4C)cc3)C(C)(C)C)CC2)cc1` [Compound 28a, (2S,4R)-1-((S)-3,3-dimethyl-2-(6-(4-(4-(2-propylhydrazine-1-carbonyl)phenyl)piperazin-1-yl)hexanamido)butanoyl)-4-hydroxy-N—((S)-1-(4-(4-methylthiazol-5-yl)phenyl)ethyl)pyrrolidine-2-carboxamide], less than 0.1 µM.
The same measure, in the same setting: with `CCCNNC(=O)c1ccc(N2CCN(CCCCCCC(=O)N[C@H](C(=O)N3C[C@H](O)C[C@H]3C(=O)N[C@@H](C)c3ccc(-c4scnc4C)cc3)C(C)(C)C)CC2)cc1` [Compound 28b, (2S,4R)-1-((S)-3,3-dimethyl-2-(7-(4-(4-(2-propylhydrazine-1-carbonyl)phenyl)piperazin-1-yl)heptanamido)butanoyl)-4-hydroxy-N—((S)-1-(4-(4-methylthiazol-5-yl)phenyl)ethyl)pyrrolidine-2-carboxamide] the figure was less than 0.1 µM; with `CCCNNC(=O)c1ccc(N2CCN(CCCCCCCCC(=O)N[C@H](C(=O)N3C[C@H](O)C[C@H]3C(=O)N[C@@H](C)c3ccc(-c4scnc4C)cc3)C(C)(C)C)CC2)cc1` [Compound 28d, (2S,4R)-1-((S)-3,3-dimethyl-2-(9-(4-(4-(2-propylhydrazine-1-carbonyl)phenyl)piperazin-1-yl)nonanamido)butanoyl)-4-hydroxy-N—((S)-1-(4-(4-methylthiazol-5-yl)phenyl)ethyl)pyrrolidine-2-carboxamide], less than 0.1 µM; with `CCCNNC(=O)c1ccc(N2CCN(CCCCCCCCCC(=O)N[C@H](C(=O)N3C[C@H](O)C[C@H]3C(=O)N[C@@H](C)c3ccc(-c4scnc4C)cc3)C(C)(C)C)CC2)cc1` [Compound 28e, (2S,4R)-1-((S)-3,3-dimethyl-2-(10-(4-(4-(2-propylhydrazine-1-carbonyl)phenyl)piperazin-1-yl)decanamido)butanoyl)-4-hydroxy-N—((S)-1-(4-(4-methylthiazol-5-yl)phenyl)ethyl)pyrrolidine-2-carboxamide], less than 1 µM.
With `CCCNNC(=O)c1ccc(-c2ccc(NC(=O)CCCCCCC(=O)N[C@H](C(=O)N3C[C@@H](O)C[C@@H]3C(=O)N[C@@H](C)c3ccc(-c4scnc4C)cc3)C(C)(C)C)cc2)cc1` [XZ9002-NC, N^1—((S)-1-((2R,4S)-4-Hydroxy-2-(((S)-1-(4-(4-methylthiazol-5-yl)phenyl)ethyl)carbamoyl)pyrrolidin-1-yl)-3,3-dimethyl-1-oxobutan-2-yl)-N^5-(4′-(2-propylhydrazine-1-carbonyl)-[1,1′-biphenyl]-4-yl)octanediamide], the “HDAC3 degradation (in words)” value at HDAC3 (MDA-MB-468 cells (FIG. 3B)) is listed as “did not induce HDAC3 degradation”.

The record behind these values is patent publication US20230181746A1, “BENZOYLHYDRAZIDE-DERIVED HDAC DEGRADERS AS THERAPEUTICS FOR TREATING CANCER AND OTHER HUMAN DISEASES” (University of Florida Research Foundation, Inc., priority 2020, published 2023).
